From publication PMC7822874, “Chemoprotective antimalarials identified through quantitative high-throughput screening of Plasmodium blood and liver stage parasites” (Scientific Reports, 2021)
Values joined by “and” are separate entries in the source; they are usually repeats but may differ in a detail not shown here. Equal entries are not always repeated. Where two headings read alike, the source gives them in different places.

Tests used:
[1] = tested on: Plasmodium falciparum Dd2 asexual blood stage parasites; assay: microbe, parasite or virus in culture; parameters: species or system Plasmodium falciparum Dd2 in human erythrocytes; single determination (one 11-point concentration-response curve); conditions: Plasmodium falciparum, DD2, Erythrocyte, 72 h; read-out: AC50
[2] = tested on: P. falciparum Dd2 Cytb G131S; assay: SYBR Green ABS proliferation assay, NCGC00374598 selected clone C11; assay type: cell-based, Plasmodium falciparum; conditions: Plasmodium falciparum
In short: (§1)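 Proliferation of cytb-mutant Dd2 clones was measured by SYBR Green-I fluorescence at 72 h, normalized to controls.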

[3] = tested on: P. falciparum Dd2 Cytb F123L; assay: SYBR Green ABS proliferation assay, NCGC00473217 selected clone G08; assay type: cell-based, Plasmodium falciparum; parameters: log AC50, mean: unit: log10(M); conditions: for AC50: Plasmodium falciparum
In short: as §1

[4] = tested on: luciferase-expressing P. berghei liver stage parasites in HepG2 cells; assay: Inhibition of liver-stage development assay (ILSDA), Method 2 (WRAIR, 96-well); assay type: cell-based, Plasmodium berghei; conditions: for Activity direction (Decrease / Inactive): P. berghei liver stage, Method 2, dose response; for Max Resp (signal direction of the dose response): Method 2, Decrease = decreasing P. berghei viability with dose, Increase = increasing signal, Inactive = no dose response; for AC50: Plasmodium berghei, HepG2, Method 2
[5] = tested on: P. falciparum Dd2 Cytb V259L; assay: SYBR Green ABS proliferation assay, NCGC00473217 selected clone F06; assay type: cell-based, Plasmodium falciparum; parameters: log AC50, mean: unit: log M; conditions: for AC50: Plasmodium falciparum
In short: as §1

[6] = tested on: P. falciparum Dd2 Cytb A122D; assay: SYBR Green ABS proliferation assay, NCGC00473217 selected clone F12; assay type: cell-based, Plasmodium falciparum; parameters: log AC50, mean: unit: Log[M]; conditions: for AC50: Plasmodium falciparum
In short: as §1

[7] = tested on: P. falciparum Dd2 (clone B2) asexual blood stage parasites; assay: P. falciparum Dd2 asexual blood stage SYBR Green-I 72 h proliferation assay (qHTS); assay type: cell-based, Plasmodium falciparum; conditions: Plasmodium falciparum, DD2, Dd2 parental; Hill fit, averaged from three independent replicates; top concentration 29 µM; read-out: Average AC50 (Log[M]), Dd2 (converted)
[8] = tested on: T1, Plasmodium falciparum Dd2-attB (parental line), asexual blood stages; assay: microbe, parasite or virus in culture; parameters: replicate k of 3 (each line is one of three independent assays; the three lines of one compound and parasite line follow each other); conditions: n = 1; for Individual replicates / Log AC50 (M): 72 h; for AC50: Plasmodium falciparum, DD2, 72 h, read-out: Individual replicates / Log AC50 (converted)
T1 construct: Dd2-attB, the isogenic parental line
In short: (§2)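 We compare activity in parasites carrying fumarate-using yeast DHODH with that in the parental line; mETC or parasite DHODH inhibitors are bypassed by this enzyme. Data come from three independent assays, analysed by two-sided Student's t-tests.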

[9] = tested on: T2, Plasmodium falciparum Dd2-attB-ScDHODH (transgenic line expressing yeast DHODH), asexual blood stages; assay: organism not typed; parameters: replicate k of 3 (each line is one of three independent assays; the three lines of one compound and parasite line follow each other); conditions: 72 h, n = 1
T2 construct: Dd2-attB-ScDHODH, the transgenic line that expresses yeast DHODH
In short: as §2

[10] = tested on: P. berghei-ANKA-GFP-LucCON liver stage parasites in HepG2-A16-CD81EGFP cells; assay: P. berghei liver stage Pb-Luc assay, Method 1 (UCSD, 1536-well); assay type: cell-based, Plasmodium berghei; conditions: Method 1; Decrease = decreasing P. berghei viability with dose, Increase = increasing signal, Inactive = no dose response
[11] = DD2, cytochrome b mutant line, second value triple, c6, […], read-out: log AC50, mean (converted)
[12] = DD2, cytochrome b mutant line, fifth value triple, c15, […], read-out: log AC50, mean (converted)
[13] = DD2, cytochrome b mutant line, third value triple, c9, […], read-out: log AC50, mean (converted)
[14] = DD2, cytochrome b mutant line, fourth value triple, c12, […], read-out: log AC50, mean (converted)
[15] = DD2, […], averaged from three independent replicates, top concentration 29 µM, read-out: Average AC50 (Log[M]), NCGC00374598 clone C11 (Cytb G131S) (converted)
[16] = DD2, […], averaged from three independent replicates, top concentration 29 µM, read-out: Average AC50 (Log[M]), NCGC00473217 clone G08 (Cytb F123L) (converted)
[17] = DD2, […], averaged from three independent replicates, top concentration 29 µM, read-out: Average AC50 (Log[M]), NCGC00473217 clone F06 (Cytb V259L) (converted)
[18] = DD2, […], averaged from three independent replicates, top concentration 29 µM, read-out: Average AC50 (Log[M]), NCGC00473217 clone F12 (Cytb A122D) (converted)
[19] = Hill fit, 50% of maximum activity response, read-out: AC50
[20] = log10 of molar AC50 from Hill fit, read-out: Log AC50 (converted)

Structure (SMILES)	AC50 [2, 15] [M]	AC50 [3, 16] [M]	AC50 [5, 17] [M]	AC50 [6, 18] [M]	AC50 [7] [M]	further results
CCc1nc2c(c(-c3ccc(O)cc3)n1)CCN(Cc1ccc(OC(F)(F)F)cc1)CC2 [NCGC00480301-01]						AC50 [1]: 1.5 µM; AC50 [2, 11]: 5.11e-06 M; AC50 [3, 12]: 7.78e-06 M; Activity direction (Decrease / Inactive) [4]: Inactive; AC50 [5, 13]: 5.73e-06 M; AC50 [6, 14]: 6.18e-06 M
CCCN1C(CC(C)C)=N[S+](=O)([O-])c2cc(NC(=O)c3cncnc3)ccc21 [NCGC00521134-01]	4.48e-06	4.48e-06	1.59e-06	3.77e-06	8.93e-06	
CCCN1C(CC(C)C)=N[S+](=O)([O-])c2cc(NC(=O)c3ccc(-c4ccccc4)s3)ccc21 [NCGC00521113-01]	1.68e-06	2.24e-06	1.42e-06	5.02e-06	5.02e-06	
CCCN1C(CC(C)C)=N[S+](=O)([O-])c2cc(NC(=O)c3ccc(Cl)c(Cl)c3)ccc21 [NCGC00531756-01]	5.97e-06	1.42e-05	7.38e-06	8.93e-06	2e-05	
CCCN1C(CC(C)C)=N[S+](=O)([O-])c2cc(N[S+](=O)([O-])c3ccc4ccccc4c3)ccc21 [NCGC00521141-01]	7.1e-06	7.1e-07	5.32e-06	1.12e-05	1.26e-05	
CCCN1C(CC(C)C)=N[S+](=O)([O-])c2cc(NC(=O)c3cn(-c4ccccc4)cn3)ccc21 [NCGC00521102-01]	2.62e-07	3.56e-06	2.99e-06	3.56e-08	7.67e-06	
CCCN1C(CC(C)C)=N[S+](=O)([O-])c2cc(NC(=O)c3ccno3)ccc21 [NCGC00521048-01]	5.02e-06	1.89e-07	3.17e-06	4.66e-06	6.1e-06	
CCCN1C(CC(C)C)=N[S+](=O)([O-])c2cc(NC(=O)c3cc(C)on3)ccc21 [NCGC00521054-01]	1.26e-05	4.48e-06	2e-06	2e-06	8.93e-06	
Oc1ccc(-c2nc(C3CC3)nc3c2CCN(CC2CCCCC2)CC3)cc1 [NCGC00480361-01]						AC50 [1]: 4.73 µM; AC50 [2, 11]: 6.43e-06 M; log AC50, mean ([3]; cytochrome b mutant line, fifth value triple, c15, […]): -5.309; Activity direction (Decrease / Inactive) [4]: Inactive; log AC50, mean ([5]; cytochrome b mutant line, third value triple, c9, […]): -5.075; Individual replicates / Log AC50 (M) [8]: -5.4486 Log AC50 (M) and -5.3986 Log AC50 (M); AC50 [8]: 4.48 µM; log AC50, mean ([6]; cytochrome b mutant line, fourth value triple, c12, […]): -5.009; Individual replicates / Log AC50 (M) [9]: -5.2486 Log AC50 (M) and -5.1486 Log AC50 (M)
CCCN1C(CC(C)C)=N[S+](=O)([O-])c2cc(NC(=O)c3ccc(Cl)s3)ccc21 [NCGC00523535-01]	1e-06	9.66e-06	7.1e-06	5.86e-06	1.53e-06	
CCCN1C(CC(C)C)=N[S+](=O)([O-])c2cc(NC(=O)c3c(Cl)cnn3C)ccc21 [NCGC00521056-01]	1.12e-05	1.22e-05	8.61e-06	6.32e-06	1.65e-05	
CCCN1C(CC(C)C)=N[S+](=O)([O-])c2cc(NC(=O)c3sccc3F)ccc21 [NCGC00523542-01]	1.78e-06	7.52e-06	5.43e-06	1.31e-06	1.59e-06	
COc1ccc(-c2nc(C3CC3)nc3c2CCN(Cc2cc(C)on2)CC3)cc1 [NCGC00374666-01]						AC50 [2, 11]: 8.09e-06 M; AC50 [3, 12]: 5.31e-06 M; Max Resp (signal direction of the dose response) [4]: Decrease; AC50 [4, 19]: 0.794 µM; AC50 [4, 20]: 0.794 µM; AC50 [5, 13]: 8.09e-06 M; AC50 [6, 14]: 6.93e-06 M
CC(=O)Nc1ccc(CN2CCc3nc(C(C)C)nc(-c4ccc(Cl)cc4)c3CC2)cc1 [NCGC00374598-01]						AC50 [1]: 2.66 µM; AC50 [2, 11]: 4.91e-06 M; AC50 [3, 12]: 7.78e-07 M; Max Resp (signal direction of the dose response) [4]: Decrease; AC50 [4, 19]: 0.501 µM; AC50 [4, 20]: 0.501 µM; AC50 [5, 13]: 4.91e-06 M; Individual replicates / Log AC50 (M) [8]: -5.6986 Log AC50 (M) and -5.7986 Log AC50 (M); AC50 [8]: 1.26 µM; AC50 [6, 14]: 3.35e-06 M; Max Resp (signal direction of the dose response) [10]: Decrease; Individual replicates / Log AC50 (M) [9]: -5.1486 Log AC50 (M) and -4.9986 Log AC50 (M) and -5.3986 Log AC50 (M)
